The text below walks through data of article PMC12557365 (Journal of Medicinal Chemistry, 2025).

The target of data set [1] is HIV-1 Protease (Human immunodeficiency virus type 1 group M subtype B, UniProt P04585). Briefly: biochemical.
Data set [2] concerns the target T1, P-gp (Homo sapiens, UniProt P08183). Briefly: in vitro. The following applies: LLC-PK1.
Data set [3] in a line: in vivo. The settings on record: female, cynomolgus monkey, iv, 0.1 mg/kg.
Data set [4] has as its system HCoV-OC43. Briefly: microbe, parasite or virus in culture. The settings on record: Betacoronavirus 1, OC43, MRC5, read-out: EC50 HCoV-OC43. Type of data set: cell-based.
In data set [5] the test system is SARS-CoV-2 hCoV-19/Japan/TY/WK-521 strain. Nature of the data set: microbe, parasite or virus in culture. The settings on record: Severe acute respiratory syndrome coronavirus 2, HEK-293T, read-out: HEK 293T-AT EC50. Type of data set: cell-based.
The test system of data set [6] is SARS-CoV-2 Gamma strain (hCoV-19/Japan/TY7-501/2021). Briefly: microbe, parasite or virus in culture. Type of data set: cell-based.
For data set [7], the system named is Human Cathepsin B/D/G/L. Type of data set: biochemical.
Data set [8] concerns SARS-CoV-2. Nature of the data set: microbe, parasite or virus in culture. The settings on record: Severe acute respiratory syndrome coronavirus 2, A549. Type of data set: cell-based.
Data set [9] in a line: in vitro. The settings on record: male, rat, microsomes.
For data set [10], the system named is Human Chymotrypsin. It counts as biochemical.
For data set [11] the following is noted: in vivo.
For data set [12], the system named is HCoV-229E. Briefly: microbe, parasite or virus in culture. Type of data set: cell-based.
For data set [13] the following is noted: pig.
Data set [14] concerns MERS-CoV. Nature of the data set: microbe, parasite or virus in culture. It counts as cell-based. The following applies: Middle East respiratory syndrome-related coronavirus, VeroE6/TMPRSS2, read-out: EC50 MERS-CoV.
Data set [15] is described as follows: in vitro. The settings on record: African green monkey.
Data set [16] deals with T1, P-gp. The following applies: LLC-PK1.
A short description of data set [17]: in vitro. The settings on record: pig, LLC-PK1.
A short description of data set [18]: in vivo. The settings on record: male, Sprague-Dawley, rat.
Data set [19] deals with SARS-CoV-2 Gamma strain (hCoV-19/Japan/TY7-501/2021). On the set-up: species or system BALB/cAJcl mice. The following applies: mouse, in vivo.
A short description of data set [20]: in vitro. The settings on record: both, human, microsomes.
For data set [21], the system named is SARS-CoV. Nature of the data set: microbe, parasite or virus in culture. Type of data set: cell-based. The settings on record: Severe acute respiratory syndrome coronavirus, VeroE6/TMPRSS2, read-out: EC50 SARS-CoV.
Data set [22] relates to SARS-CoV-2 Omicron strains. Briefly: microbe, parasite or virus in culture. The following applies: Severe acute respiratory syndrome coronavirus 2, Epithelial cell. It counts as cell-based.
Data set [23] has as its target Human Caspase 2 (Homo sapiens, UniProt P42575). Nature of the data set: biochemical.
Data set [24] in a line: in vivo. The settings on record: male, beagle, dog, iv, 0.1 mg/kg.
For data set [25], the target named is Human Thrombin (Homo sapiens, UniProt P00734). Nature of the data set: biochemical.
In data set [26] the test system is MERS-CoV. The settings on record: cited from earlier work.
For data set [27] the following is noted: rat, microsomes, 0.5 h; cited from earlier work.
The test system of data set [28] is SARS-CoV-2 hCoV-19/Japan/TY/WK-521 strain. The settings on record: read-out: HEK 293T-AT EC50; cited from earlier work.
Data set [29] has as its system SARS-CoV. The following applies: cited from earlier work.
The conditions of data set [30]: human, microsomes, 0.5 h; cited from earlier work.
For data set [31] the following is noted: LLC-PK1; cited from earlier work.
The subject of data set [32] is HCoV-229E. The settings on record: cited from earlier work.
The target in data set [33] is T1, P-gp. The following applies: LLC-PK1; cited from earlier work.
The mark [34] stands for this setting: Severe acute respiratory syndrome coronavirus 2, VeroE6/TMPRSS2, read-out: EC90, 0% serum.
The mark [35] stands for this setting: Severe acute respiratory syndrome coronavirus 2, VeroE6/TMPRSS2, read-out: EC90, 12.5% serum.
Where [36] appears, read: Severe acute respiratory syndrome coronavirus 2, VeroE6/TMPRSS2, read-out: EC90, 25% serum.

SMILES strings stand for the structures. Values joined by “and” are separate entries in the source; they are usually repeats but may differ in a detail not shown here. Equal values may be shown once. “Also recorded” adds a separate entry of the source. Read-outs that look alike come from different tables or passages of the source.

T1 sequence (P08183 whole entry): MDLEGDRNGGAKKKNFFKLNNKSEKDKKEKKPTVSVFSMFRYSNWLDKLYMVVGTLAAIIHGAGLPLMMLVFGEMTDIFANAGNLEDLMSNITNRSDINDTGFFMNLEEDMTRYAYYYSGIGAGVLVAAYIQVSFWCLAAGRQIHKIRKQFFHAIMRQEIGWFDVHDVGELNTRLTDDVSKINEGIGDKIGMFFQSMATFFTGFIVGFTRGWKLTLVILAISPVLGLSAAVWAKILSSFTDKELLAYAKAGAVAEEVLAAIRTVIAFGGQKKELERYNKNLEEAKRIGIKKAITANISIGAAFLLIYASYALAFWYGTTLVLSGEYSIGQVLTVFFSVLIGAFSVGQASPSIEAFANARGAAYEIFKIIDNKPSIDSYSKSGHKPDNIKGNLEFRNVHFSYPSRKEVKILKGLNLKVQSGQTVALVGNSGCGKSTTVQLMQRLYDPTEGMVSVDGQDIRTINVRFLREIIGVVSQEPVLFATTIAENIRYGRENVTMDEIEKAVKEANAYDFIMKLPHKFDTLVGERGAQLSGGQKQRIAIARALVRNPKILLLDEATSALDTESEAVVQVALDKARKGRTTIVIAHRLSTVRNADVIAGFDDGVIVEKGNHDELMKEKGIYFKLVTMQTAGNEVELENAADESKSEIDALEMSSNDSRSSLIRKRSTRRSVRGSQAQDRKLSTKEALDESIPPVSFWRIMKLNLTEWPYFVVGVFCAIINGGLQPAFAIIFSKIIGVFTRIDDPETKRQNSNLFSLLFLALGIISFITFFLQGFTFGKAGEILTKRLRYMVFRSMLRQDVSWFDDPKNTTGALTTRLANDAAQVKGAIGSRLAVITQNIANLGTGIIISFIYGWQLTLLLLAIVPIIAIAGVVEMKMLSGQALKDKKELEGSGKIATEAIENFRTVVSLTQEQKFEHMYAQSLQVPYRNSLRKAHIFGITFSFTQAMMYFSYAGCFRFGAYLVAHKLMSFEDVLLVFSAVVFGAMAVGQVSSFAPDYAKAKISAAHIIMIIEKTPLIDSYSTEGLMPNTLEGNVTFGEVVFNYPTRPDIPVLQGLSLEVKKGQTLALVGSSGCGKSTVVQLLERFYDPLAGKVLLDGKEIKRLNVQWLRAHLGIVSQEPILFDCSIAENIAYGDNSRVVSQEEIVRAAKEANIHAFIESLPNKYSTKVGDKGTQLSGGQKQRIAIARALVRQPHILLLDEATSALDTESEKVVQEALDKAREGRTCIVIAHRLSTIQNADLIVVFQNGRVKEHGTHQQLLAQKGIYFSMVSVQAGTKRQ
Sequence of Human Caspase 2 (P42575 170-333): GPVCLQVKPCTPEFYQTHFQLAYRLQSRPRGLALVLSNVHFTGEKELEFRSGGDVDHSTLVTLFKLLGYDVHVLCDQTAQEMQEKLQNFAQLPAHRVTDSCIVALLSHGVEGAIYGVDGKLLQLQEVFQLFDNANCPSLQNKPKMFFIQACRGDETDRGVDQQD
Sequence of Human Caspase 2 (P42575 348-452): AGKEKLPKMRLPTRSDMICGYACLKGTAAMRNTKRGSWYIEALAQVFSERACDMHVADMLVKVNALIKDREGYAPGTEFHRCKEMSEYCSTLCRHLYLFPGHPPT

In general, IC50 refers to the concentration at which inhibition is half-maximal. Usually Papp A→B stands for the apparent permeability from the apical to the basolateral side of a cell layer. What is called Papp B→A is how fast a substance crosses the layer from the basolateral side. By clearance is commonly meant the rate of elimination divided by the concentration. Broadly, the half-life is the time in which the quantity being followed falls by half. A word on the EC50: it is the midpoint of the concentration-response curve. For orientation: EC90 means the concentration needed for an effect of 90%. For orientation: share remaining means the share of the starting amount still present when the sample was taken. The term bioavailability denotes the share of a dose that reaches the circulation, judged against a reference dose that is usually intravenous. Consider `N#CCn1c(N2CC3(C2)CC(F)(F)C3)c(-c2ccc(F)c(Cl)c2)c(=O)n(-c2cncc(Cl)c2)c1=O` [Compound 17, [5-(3-Chloro-4-fluorophenyl)-3-(5-chloropyridin-3-yl)-6-(6,6-difluoro-2-azaspiro[3.3]-heptan-2-yl)-2,4-dioxo-3,4-dihydropyrimidin-1(2H)-yl]-acetonitrile], for which the IC50 in [1], in data set [7], in data set [10], in [23] and in [25] was greater than 10 µM in each case. Besides, the Papp A→B worked out at 24.8 nm/s in data set [2] and 61.7 nm/s in data set [17]. Moreover, the Papp B→A in data set [2] amounted to 224 nm/s; in data set [17], 73.6 nm/s. The clearance in data set [3] amounted to 0.684 L/h/kg; in [18] (iv), 0.407 L/h/kg; in [24] it was 0.151 L/h/kg. Also, the half-life is 7.02 h in data set [3], 8.14 h in data set [18] (iv) and 24.9 h in data set [24]. In addition, the EC50 was determined as 0.092 µM in data set [4]; 0.00248 µM in data set [5]; 0.00221 µM in data set [8]; 3.57 ± 0.51 µM in data set [12] (read-out: EC50 HCoV-229E); 0.0573 µM in [14]; 0.00661 µM in data set [21]. In addition, the EC90 in data set [6] (setting [34]) is 0.00166 ± 0.00014 µM; in data set [6] (setting [35]), 0.00198 ± 8e-05 µM; in data set [6] (setting [36]), 0.00342 ± 0.00055 µM; in data set [6] (read-out: EC90, 12.5% serum), 0.00243 ± 0.00032 µM; in data set [6] (read-out: EC90, 25% serum) it was 0.00276 ± 0.00066 µM; in data set [22], 0.00241 ± 0.00161 µM. Besides, the EC90 in data set [22] (in Mus musculus, read-out: protein-adjusted EC90 (PA-EC90)) was 27 nM to 28.1 nM and 0.0141 µg/mL to 0.0147 µg/mL. The share remaining at 0.5 h was found to be 92% in [9] and 99% in data set [20]. For the same molecule, in [11], the adverse effects entry is “No adverse effects were observed”. Moreover, the teratogenicity entry in data set [11] was “No teratogenicity was observed”. Further, the “LLC-PK1 P app” value in data set [13] is listed as 6.17 × 10^–6 cm/s. The same molecule came in with a CC50 in data set [15] greater than 100 µM. Further, in [16], the P-gp substrate assessment entry is “P-gp substrates”. The bioavailability in [18] (po, 1 umol/kg) amounted to 100%. Further, in data set [19], the lung virus titers result is listed as “reduced lung virus titers in a dose-dependent manner; also recorded: Virus titer reduction was observed; also recorded: appeared to reach maximum efficacy”.
Take `Cn1cnc(Cn2c(=O)[nH]/c(=N\c3cc4cn(C)nc4cc3Cl)n(Cc3cc(F)c(F)cc3F)c2=O)n1` [ensitrelvir]: the EC50 is 1.4 µM in data set [26]; 0.142 ± 0.009 µM in [4]; 0.0731 ± 0.0164 µM in [8]; 0.027 µM in data set [28]; 0.21 µM in data set [29]; 5.5 µM in data set [32]. For the same molecule, the EC90 in data set [6] (setting [34]) was 0.118 ± 0.052 µM; in data set [6] (setting [35]), 0.367 ± 0.069 µM; in data set [6] (setting [36]) it was 0.608 ± 0.075 µM; in data set [6] (Severe acute respiratory syndrome coronavirus 2, VeroE6/TMPRSS2, read-out: EC90, 50% serum) it was 0.838 ± 0.191 µM; in data set [6] (Severe acute respiratory syndrome coronavirus 2, VeroE6/TMPRSS2, read-out: EC90, 100% (Extrapolated)), 1.59 ± 0.33 µM; in data set [6] (read-out: EC90, 12.5% serum) it was 0.218 ± 0.06 µM. The EC90 is 0.462 ± 0.129 µM in data set [6] (read-out: EC90, 25% serum); 1.56 ± 0.29 µM in [6] (read-out: EC90, 50% serum); 2.92 ± 0.55 µM in [6] (read-out: EC90, 100% (Extrapolated)); 0.0601 ± 0.0328 µM in data set [22]. For the same molecule, in [27], the RLM % remained is recorded as 96/88^25%. For the same molecule, the HLM % remained in [30] was 96/88^25%. Also, the “Papp Apical to Basolateral” value in data set [31] was 10.3 ± 0.3 ×10-6 cm/sec; in [33], 2.03 ± 0.07 ×10-6 cm/sec. For the same molecule, the “Papp Basolateral to Apical” value in [31] is reported as 11.6 ± 0.3 ×10-6 cm/sec; in data set [33] it was 30.2 ± 1.8 ×10-6 cm/sec. Moreover, in data set [16], the P-gp substrate assessment entry is “P-gp substrates”.
With `CC(C)(C)[C@H](NC(=O)C(F)(F)F)C(=O)N1C[C@H]2[C@@H]([C@H]1C(=O)N[C@H](C#N)C[C@@H]1CCNC1=O)C2(C)C` [nirmatrelvir, reference compound], the Papp A→B in [2] amounted to 9.08 nm/s; in [17] it was 6.15 nm/s. In addition, the Papp B→A in data set [2] was determined as 93.9 nm/s; in data set [17] it was 14.2 nm/s. The EC50 came out at 0.0588 ± 0.0122 µM in [4]; 0.0475 ± 0.0123 µM in [8]; 0.696 ± 0.21 µM in [12] (Human coronavirus 229E, MRC5, read-out: EC50 HCoV-229E). Moreover, the P-gp substrate assessment entry in [16] is listed as “P-gp substrates”. The molecule further had an EC90 in data set [22] of 0.0451 ± 0.0212 µM.
